# Molecular target: P70S6K (T412E mutant) (Homo sapiens (Human), UniProt P23443, T412E)
# Test: P70S6K enzyme assay
# Format: biochemical
# Conditions: 3 nM P70S6K T412E mutant, 24 μM ATP, 1 μM FITC-AHA-AKRRRLSSLRA-OH substrate peptide, 90 min at 25° C.
# In short: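 IC50s come from mobility-shift separation of phospho-product from FITC-AHA-AKRRRLSSLRA-OH substrate (1 μM) after the reaction was quenched with 10 mM EDTA. The reaction used 3 nM T412E-mutant enzyme and 24 μM ATP, running 90 min at 25° C in 100 mM Hepes pH 7.5 buffer.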
# P70S6K (T412E mutant), sequence (P23443 whole entry T412E): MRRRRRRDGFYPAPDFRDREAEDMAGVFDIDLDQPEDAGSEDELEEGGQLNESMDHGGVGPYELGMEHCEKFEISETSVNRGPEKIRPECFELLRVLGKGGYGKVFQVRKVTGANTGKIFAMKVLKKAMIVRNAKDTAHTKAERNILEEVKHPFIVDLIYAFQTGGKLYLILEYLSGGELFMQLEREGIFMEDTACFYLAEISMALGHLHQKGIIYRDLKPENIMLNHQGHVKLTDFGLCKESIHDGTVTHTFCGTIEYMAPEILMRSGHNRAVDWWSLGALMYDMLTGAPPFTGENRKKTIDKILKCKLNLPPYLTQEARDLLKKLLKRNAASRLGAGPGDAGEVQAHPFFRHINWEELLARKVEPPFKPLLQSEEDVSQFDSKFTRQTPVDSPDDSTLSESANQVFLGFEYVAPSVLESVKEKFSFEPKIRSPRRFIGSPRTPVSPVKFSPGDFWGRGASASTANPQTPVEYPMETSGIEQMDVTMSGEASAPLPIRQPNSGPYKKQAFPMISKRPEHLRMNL
row,SMILES,IC50
1,"CN(C)CC(c1ccc(C(F)(F)F)cc1)N1CCN(c2ncnc(N)c2-c2ccc(F)cc2)CC1 (stereo not drawn) [Example 15, 6-(4-(2-(dimethylamino)-1-(4-(trifluoromethyl)phenyl)ethyl)piperazin-1-yl)-5-(4-fluorophenyl)pyrimidin-4-amine]",4.9 nM
2,"NC[C@H](c1ccc(C(F)(F)F)cc1)N1CCN(c2ncnc(N)c2-c2ccc(F)cc2)CC1 [Example 3, 6-{4-[(S)-2-Amino-1-(4-trifluoromethyl-phenyl)-ethyl]-piperazin-1-yl}-5-(4-fluoro-phenyl)-pyrimidin-4-ylamine]",2.6 nM
3,"Cn1cc(-c2c(N)ncnc2N2CCC(C(CN)c3ccc(C(F)(F)F)cc3)CC2)cn1 (stereo not drawn) [Example 58, 6-(4-(2-amino-1-(4-(trifluoromethyl)phenyl)ethyl)piperidin-1-yl)-5-(1-methyl-1H-pyrazol-4-yl)pyrimidin-4-amine]",31 nM
4,"NC[C@@H](c1ccc(C(F)(F)F)cc1)N1CCN(c2ncnc(N)c2-c2cn[nH]c2)CC1 [Example 9, (R)-6-(4-(2-amino-1-(4-(trifluoromethyl)phenyl)ethyl)piperazin-1-yl)-5-(1H-pyrazol-4-yl)pyrimidin-4-amine]",5.7 nM
5,"NCC(c1ccc(C(F)(F)F)cc1)N1CCN(c2ncnc(N)c2C2=CCCC2)CC1 (stereo not drawn) [Example 25, 6-(4-(2-amino-1-(4-(trifluoromethyl)phenyl)ethyl)piperazin-1-yl)-5-(cyclopent-1-en-1-yl)pyrimidin-4-amine]",3.4 nM
6,"Nc1ncnc(N2CCN(C(CN3CCCC3)c3ccc(F)cc3)CC2)c1-c1ccc(F)cc1 (stereo not drawn) [Example 75, 5-(4-Fluorophenyl)-6{4-[1-(4-fluorophenyl)-2-pyrrolidin-1-yl-ethyl]-piperazin-1-yl}-pyrimidin-4-ylamine]",15 nM
7,"Nc1ncnc(N2CCN(C(CN3CCCCC3)c3ccc(C(F)(F)F)cc3)CC2)c1Br (stereo not drawn) [Example 11, 5-bromo-6-(4-(2-(piperidin-1-yl)-1-(4-(trifluoromethyl)phenyl)ethyl)piperazin-1-yl)pyrimidin-4-amine]",280 nM
8,"NCC(c1ccc(C(F)(F)F)cc1)N1CCN(c2ncnc(N)c2OCc2ccccc2)CC1 (stereo not drawn) [Example 34, 6-(4-(2-amino-1-(4-(trifluoromethyl)phenyl)ethyl)piperazin-1-yl)-5-(benzyloxy)pyrimidin-4-amine]",57 nM
9,"Nc1ncnc(N2CCN(Cc3cc(Cl)c(Cl)cc3OC3CNC3)CC2)c1-c1ccc(F)cc1 [Example 62, 6-(4-(2-(azetidin-3-yloxy)-4,5-dichlorobenzyl)piperazin-1-yl)-5-(4-fluorophenyl)pyrimidin-4-amine]",980 nM
10,"NCC(c1ccc(C(F)(F)F)cc1)N1CCN(c2ncnc(N)c2-c2ccc(F)cc2)CC1 (stereo not drawn) [Example 2, 6-{4-[2-Amino-1-(4-trifluoromethyl-phenyl)-ethyl]-piperazin-1-yl}-5-(4-fluoro-phenyl)-pyrimidin-4-ylamine]",2.2 nM
11,"COC(=O)c1ccc(-c2c(N)ncnc2N2CCN(C(CN(C)C)c3ccc(C(F)(F)F)cc3)CC2)cc1 (stereo not drawn) [Example 23, Methyl 4-(4-amino-6-(4-(2-(dimethylamino)-1-(4-(trifluoromethyl)phenyl)ethyl)piperazin-1-yl)pyrimidin-5-yl)benzoate]",12 nM
12,"Nc1cc(N2CCN(C(CN3CCCC3)c3ccc(F)cc3)CC2)ncn1 (stereo not drawn) [Example 78, 6-{4-[1-(4-fluorophenyl)-2-pyrrolidin-1-yl-ethyl]-piperazin-1-yl}-pyrimidin-4-ylamine]",> 1000 nM
13,"Nc1ncnc(N2CCC(Cc3ccc(C(F)(F)F)cc3)CC2)c1Br [Example 47, 5-Bromo-6{4-(4-trifluoromethylbenzyl)-piperidin-1-yl}pyrimidin-4-amine]",960 nM
14,"Cn1cc(-c2c(N)ncnc2N2CCN([C@H](CN)c3ccc(C(F)(F)F)cc3)CC2)cn1 [Example 41, 6-{4-[(S)-2-Amino-1-(4-trifluoromethyl-phenyl)-ethyl]-piperazin-1-yl}-5-(1-methyl-1H-pyrazol-4-yl)-pyrimidin-4-ylamine]",14 nM
15,"CN(C)CCNC(=O)C(c1ccc(C(F)(F)F)cc1)N1CCN(c2ncnc(N)c2-c2ccc(F)cc2)CC1 (stereo not drawn) [Example 18, 2-(4-(6-amino-5-(4-fluorophenyl)pyrimidin-4-yl)piperazin-1-yl)-N-(2-(dimethylamino)ethyl)-2-(4-(trifluoromethyl)phenyl)acetamide]",18 nM

# Second part, the compound after the results:
row,IC50,SMILES
1,31 nM,"NCC(c1cccnc1)N1CCN(c2ncnc(N)c2-c2ccc(F)cc2)CC1 (stereo not drawn) [Example 193, 6-[4-(2-Amino-1-pyridin-3-yl-ethyl)-piperazin-1-yl]-5-(4-fluoro-phenyl)-pyrimidin-4-ylamine]"
2,6300 nM,"N#Cc1cccc([C@H](CN2CCC2)N2CCN(c3ncnc(N)c3-c3cn[nH]c3)CC2)c1 [Example 91, 3-((R)-1-{4-[6-Amino-5-(1H-pyrazol-4-yl)-pyrimidin-4-yl]-piperazin-1-yl}-2-azetidin-1-yl-ethyl)-benzonitrile]"
3,180 nM,"CCc1c(N)ncnc1N1CCN(C(CN)c2ccc3c(c2)OCCO3)CC1 (stereo not drawn) [Example 181, 6-{4-[2-Amino-1-(2,3-dihydro-benzo[1,4]dioxin-6-yl)-ethyl]-piperazin-1-yl}-5-ethyl-pyrimidin-4-ylamine]"
4,> 100000 nM,"Nc1ncnc(N2CCN(C(CN3CCC3)c3ccc(Cl)c(Cl)c3)CC2)c1-c1ccc(N2CCNCC2)nc1 (stereo not drawn) [Example 133, 6-{4-[2-Azetidin-1-yl-1-(3,4-dichloro-phenyl)-ethyl]-piperazin-1-yl}-5-(6-piperazin-1-yl-pyridin-3-yl)-pyrimidin-4-ylamine]"
5,78 nM,"CC[C@H](NC(=O)C1(N)CCN(c2ncnc(N)c2-c2cn[nH]c2)CC1)c1ccc(Cl)cc1 [Example 225, 4-Amino-1-[6-amino-5-(1H-pyrazol-4-yl)-pyrimidin-4-yl]-piperidine-4-carboxylic acid [(S)-1-(4-chloro-phenyl)-propyl]-amide]"
6,950 nM,"Nc1ncnc(N2CCN(C(CN3CCC3)c3ccc4c(c3)CCCC4)CC2)c1-c1cn[nH]c1 (stereo not drawn) [Example 122, 6-{4-[2-Azetidin-1-yl-1-(5,6,7,8-tetrahydro-naphthalen-2-yl)-ethyl]-piperazin-1-yl}-5-(1H-pyrazol-4-yl)-pyrimidin-4-ylamine]"
7,> 1000 nM,"N#CC(c1ccc(F)c(C(F)(F)F)c1)N1CCN(c2ncnc(N)c2-c2ccc(F)cc2)CC1 (stereo not drawn) [Example 154, {4-[6-Amino-5-(4-fluoro-phenyl)-pyrimidin-4-yl]-piperazin-1-yl}-(4-fluoro-3-trifluoromethyl-phenyl)-acetonitrile]"
8,2.6 nM,"NC[C@@H](c1ccc(Cl)nc1)N1CCN(c2ncnc(N)c2-c2ccc(F)cc2)CC1 [Example 175, 6-{4-[(R)-2-Amino-1-(6-chloro-pyridin-3-yl)-ethyl]-piperazin-1-yl}-5-(4-fluoro-phenyl)-pyrimidin-4-ylamine]"
9,1.3 nM,"NCC(c1ccc(Cl)cc1)N1CCN(c2ncnc(N)c2-c2ccc(F)cc2)CC1 (stereo not drawn) [Example 163, 6-{4-[2-Amino-1-(4-chloro-phenyl)-ethyl]-piperazin-1-yl}-5-(4-fluoro-phenyl)-pyrimidin-4-ylamine]"
10,280 nM,"C[C@@H](c1ccccc1)[C@H](CN)N1CCN(c2ncnc(N)c2-c2ccc(F)cc2)CC1 [Example 172, 6-[4-((1R,2S)-1-Aminomethyl-2-phenyl-propyl)-piperazin-1-yl]-5-(4-fluoro-phenyl)-pyrimidin-4-ylamine]"
11,33 nM,"CN(C)CCNC(c1ccc(F)cc1)C1CCN(c2ncnc(N)c2-c2ccc(F)cc2)CC1 (stereo not drawn) [Example 150, 1-(6-amino-5-(4-fluorophenyl)pyrimidin-4-yl)(4-((4-fluorophenyl))methyl)-dimethylethane-1,2-diamine]"
12,260 nM,"Nc1ncnc(N2CCN([C@H](CN3CCC3)c3ccc4c(c3)OCCO4)CC2)c1-c1ccc(F)cc1 [Example 98, 6-{4-[(S)-2-Azetidin-1-yl-1-(2,3-dihydro-benzo[1,4]dioxin-6-yl)-ethyl]-piperazin-1-yl}-5-(4-fluoro-phenyl)-pyrimidin-4-ylamine]"
13,14 nM,"NCC(c1ccc(F)c(C(F)(F)F)c1)N1CCN(c2ncnc(N)c2-c2ccc(F)cc2)CC1 (stereo not drawn) [Example 155, 6-{4-[2-Amino-1-(4-fluoro-3-trifluoromethyl-phenyl)-ethyl]-piperazin-1-yl}-5-(4-fluoro-phenyl)-pyrimidin-4-ylamine]"
14,1200 nM,"N#Cc1cccc([C@@H](CN2CCC2)N2CCN(c3ncnc(N)c3-c3ccc(F)cc3)CC2)c1 [Example 125, 3-((S)-1-{4-[6-Amino-5-(4-fluoro-phenyl)-pyrimidin-4-yl]-piperazin-1-yl}-2-azetidin-1-yl-ethyl)-benzonitrile]"
15,280 nM,"CS(=O)(=O)c1ccc(C(CN2CCC2)N2CCN(c3ncnc(N)c3-c3ccc(F)cc3)CC2)cc1 (stereo not drawn) [Example 128, 6-{4-[2-Azetidin-1-yl-1-(4-methanesulfonyl-phenyl)-ethyl]-piperazin-1-yl}-5-(4-fluoro-phenyl)-pyrimidin-4-ylamine]"
16,4300 nM,"CS(=O)(=O)c1ccc([C@H](CN2CCC2)N2CCN(c3ncnc(N)c3-c3cn[nH]c3)CC2)cc1 [Example 93, 6-{4-[(R)-2-Azetidin-1-yl-1-(4-methanesulfonyl-phenyl)-ethyl]-piperazin-1-yl}-5-(1H-pyrazol-4-yl)-pyrimidin-4-ylamine]"
17,> 1000 nM,"Nc1ncnc(N2CCN(C(CCCN3CCC3)c3ccc(Cl)cc3)CC2)c1-c1ccc(F)cc1 (stereo not drawn) [Example 113, 6-{4-[4-Azetidin-1-yl-1-(4-chloro-phenyl)-butyl]-piperazin-1-yl}-5-(4-fluoro-phenyl)-pyrimidin-4-ylamine]"
18,900 nM,"Nc1ncnc(N2CCN(C(CN3CCC3)c3ccc(Cl)c(F)c3)CC2)c1-c1cn[nH]c1 (stereo not drawn) [Example 121, 6-{4-[2-Azetidin-1-yl-1-(4-chloro-3-fluoro-phenyl)-ethyl]-piperazin-1-yl}-5-(1H-pyrazol-4-yl)-pyrimidin-4-ylamine]"
